Measurements reported in patent US20200129476A1, “PARP Inhibitor in Combination with a Glucocorticoid and/or Ascorbic Acid and/or a Protein Growth Factor for the Treatment of Impaired Wound Healing” (AKRIBES BIOMEDICAL GMBH, priority 2017, published 2020).
“Also recorded” adds a separate entry of the source.

Tests used:
[1] = test system: primary human dermal fibroblasts (HDF); assay: Primary human dermal fibroblast (HDF) proliferation assay (2D), with or without wound exudate; format: cell-based; conditions: for HDF proliferation, PARP inhibitor alone: talazoparib 1 μM
Experimental: (§1) Primary human dermal fibroblasts (HDF) were purchased from CELLnTEC, Bern. They were routinely grown in Dulbecco's modified Eagle's medium (DMEM) containing 10% FCS, 2 mM glutamine, and 100 U/ml penicillin/100 μg/ml streptomycin. Media, antibiotics, and glutamine were bought from Lonza. The cells were used at passage 5-15. Cells were trypsinized and seeded at 5000 cells/well in 200 μl into the inner wells of 96-well plates. The outer wells were loaded with sterile water. The cells were allowed to adhere overnight and then incubated for 72 hours at 37° C. under the following conditions: graded compound concentrations or 20 ng/ml PDGF-BB (Tonbo Biosciences) in the absence or presence of different dilutions of sterile-filtered WE in medium. For control samples, 200p1 medium was added instead of specific stimuli. Alternatively, the cells were seeded into 384-well plates at 2500 cells/well directly together with test compounds or growth factors and WE or medium in a total volume of […].
(§2) At the end of the 72-hour incubation period, supernatants were removed for the determination of IL-1ß, and the cells were fixed with 4% paraformaldehyde (Morphisto) for 15 minutes at room temperature and washed 3 times with PBS. A control plate was fixed after the overnight adherence of the cells (day 1) to determine the starting cell number.
Total cellular protein was determined as a measure of cell number by staining the fixed cells with sulforhodamine B (SRB, Sigma). A 0.4% SRB solution in 1% acetic acid was added to the wells for 30 minutes. The wells were then washed with 1 acetic acid until the wash solution remained colorless. After drying, the dye was eluted with 10 mM Tris.HCl, pH8.5, and absorbance was measured either at 550 or 492 nm for lower and higher cell densities, respectively. The average absorbance of the sample representing the day 1 starting cell number (for 96-well plates) was subtracted from the absorbance values of the WE-treated cells.
All experiments were carried out in triplicate for each sample and concentration, and means±standard deviation (SD) were used for the evaluation of the experiment. Results are expressed as percentage of control values for unstimulated cells.
(§3) Low molecular weight compounds (see list in Table 1) were dissolved in DMSO (Bioreagent for cell culture, Sigma) at 10 mM or 100 mM and diluted at least 1:1000 in medium for cellular assays (final DMSO concentration ≤0.1%).
(§4) Cells were incubated with compounds for 72 hours in proliferation assays and up to 8 days for FDM assay (refreshed after 4 days). When compounds were tested for their effect on WE stimulation, the incubation of cells with compounds was started and ended simultaneously with WE-incubation.

cells = assay: Titration to reveal potential toxic effects on cells; format: cell-based; conditions: titrated on cells
Experimental: Mifepristone, a glucocorticoid and progesterone receptor antagonist, was titrated to reveal potential toxic effects on cells and then used at the well tolerated concentration of 1 μM to counteract glucocorticoid- and progesterone-type compounds (dexamethasone, prednisolone, medroxyprogesterone, etc.). Protein growth factors (see list in Table 1) were dissolved according to the manufacturers' recommendations and used at final concentrations ranging from 0.02 to 1000 ng/ml.

[2] = test system: primary human dermal fibroblasts (HDF); assay: Fibroblast-derived matrix (FDM) formation assay (3D), with or without wound exudate; format: cell-based; conditions: for fibroblast-derived matrix (FDM) formation: presence of WE #78 (FIG. 9)
Experimental: HDF cells were seeded at 5000 cells/well on day −3 into 96-well tissue culture plates (1250 cells/well for 384-well plates), which had been pre-coated for 1 hour at 37° C. with 0.2% gelatin solution (Sigma). When the cells reached confluence (=day 0), a matrix promoting supplement (vitamin C: 2-phospho-L-ascorbic acid trisodium salt, 100 μg/ml; Sigma) was added together with test samples containing PDGF-BB, TGF-ß1 or graded concentrations of compounds −/+WE as described for the HDF proliferation assay. After 4 days, medium was replaced by fresh vitamin C- and stimulus- as well as compound-containing medium, maintaining the conditions initiated on day 0. TGF-ß1 and PDGF-BB were included as positive controls to promote FDM formation and cell growth, respectively. After a total incubation time of 8 days, FDM production was measured in fixed cultures via SRB staining and evaluated as described above. In some cases, the experiment was stopped and evaluated already on day 4.
as §3, with “≤0.1%). Compounds were typically tested in half-logarithmic dilution series (1:3.33), starting at 10 μM or 100 μM as the highest compound concentration.” for “≤0.1%).”
as §4

IL-1ß = IL-1ß secretion by HDF in the presence of wound exudate (ELISA); format: cell-based, human; conditions: FIG. 22; WE #43 and #78 used with veliparib
Experimental: as §1, §2
IL-1ß levels were determined with a commercial ELISA kit. The amount of IL-1ß contained in the wound exudate added to the cells was subtracted from the total IL-ß in the supernatants in order to determine the cytokine secreted by the cells.

IL-1α = assay: Fibroblast-macrophage coculture with wound exudate: IL-1α; format: cell-based, human; conditions: WE #78; veliparib 10 μM, talazoparib 0.1 μM
Experimental: CD14^+ monocytes, isolated from PBMC of healthy donors by magnetic bead separation were incubated either alone or in the presence of primary human dermal fibroblasts (CelINTec) or fibroblast-derived matrices (FDM). FDM had been generated from primary human dermal fibroblasts by a 3-week incubation with the growth supplements vitamin C or insulin and EGF (vitamin C: 2-phospho-L-ascorbic acid trisodium salt, 100 μg/ml; human EGF, 5 ng/ml; human insulin, 5 μg/ml). Alternatively, fibroblast monolayer cultures can be used as well. After 4 days to a week to allow for macrophage differentiation in the presence or absence of M-CSF (25 ng/ml), the cultures were stimulated overnight with graded concentrations of test compounds in the absence or presence of various dilutions of sterile-filtered WE. IFN-g (50 ng/ml), LPS (100 ng/ml) and IL-4 (25 ng/ml) or combinations thereof served as controls for M1 and M2 macrophage induction. For negative control samples, medium was added instead of specific stimuli. WE were added to the culture medium for overnight stimulation at dilutions ranging from 1:25 to 1:100.
Supernatants were harvested and frozen for cytokine determination by ELISA, and cells were harvested and subjected to FACS analysis, gating on the monocyte population. Geometric means or mean fluorescence intensities (MFI) were used to quantify surface marker expression. […]

Row | SMILES | reversal of glucocorticoid effects on HDF proliferation ([1]; mifepristone as antagonist, WE present) | well tolerated concentration (cells) | cell proliferation under wound exudate-induced inhibition ([1]; FIG. 22, WE #43 and #78 used with veliparib) | HDF proliferation, PARP inhibitor plus PDGF ([1]; PARP inhibitor dose series + PDGF 20 ng/ml, WE #78 (FIG. 18)) | fibroblast (HDF) proliferation ([1]; presence of WE #43) | fibroblast (HDF) proliferation ([1]; presence of WE #78 (diabetic patient)) | HDF proliferation ([1]; talazoparib 0.3 μM, WE #78 (FIG. 19)) | HDF proliferation, PARP inhibitor plus PDGF ([1]; veliparib 10 μM, talazoparib 1 μM + PDGF 20 ng/ml, WE #78 (FIG. 17B)) | HDF proliferation, PARP inhibitor alone ([1]; veliparib 10 μM, WE #78 (FIG. 17B)) | HDF proliferation, PARP inhibitor alone ([1]; veliparib 10 μM, absence of WE (FIG. 17A)) | fibroblast-derived matrix (FDM) formation [2] | fibroblast-derived matrix (FDM) formation ([2]; listed as Talazoparib) | fibroblast-derived matrix (FDM/ECM) formation ([2]; presence of wound exudate, WE not specified (FIG. 6: microscopy)) | IL-1ß secretion induced by wound exudate (IL-1ß) | IL-1α induced by wound exudate (IL-1α)
1 | CC#C[C@]1(O)CC[C@H]2[C@@H]3CCC4=CC(=O)CCC4=C3[C@@H](c3ccc(N(C)C)cc3)C[C@@]21C [mifepristone, Mifepristone] | reversible | 1 µM |  |  |  |  |  |  |  |  |  |  |  |  | 
2 | Cn1ncnc1[C@H]1c2n[nH]c(=O)c3cc(F)cc(c23)N[C@@H]1c1ccc(F)cc1 [talazoparib] |  |  | enhanced cell proliferation | even further enhanced by the addition of PDGF | strongly beneficial effects | strongly beneficial effects; also recorded: dose-dependent increase of HDF proliferation | rescues the cells from the inhibitory effect of the WE; also recorded: rescued the cells from the inhibitory effect of the wound exudate | additively or synergistically enhanced by PDGF | induce proliferation | no or even an inhibitory effect on fibroblasts on their own | strong positive effect | most active of the PARP inhibitors tested in 3D culture | “cleaned up” WE-induced fibroblast matrix inhibition | reducing IL-1ß secretion | reduced
